# From patent US11180452B2, “Methods and compositions for selectively inhibiting pathogenic microbes” (priority 2019, dated 2021)
# Where “and” joins values, the source holds several entries; their conditions need not be identical. Equal values may be shown once. Read-outs that look alike come from different tables or passages of the source.
# Key:
# [1] = system: Trichophyton rubrum; experiment: MIC against Trichophyton rubrum; format: cell-based; conditions: Trichophyton rubrum Castellani Sabouraud ATCC: 28188; read-out: MIC
# [2] = system: Bacillus subtilis; experiment: Bacillus subtilis MIC / MBC; format: cell-based; conditions: for MBC: Bacillus subtilis NRRL: B-571, minimum bactericidal concentration; for MIC: Bacillus subtilis, Bacillus subtilis (Ehrenberg 1835) Cohn 1872 NRRL: B-571, read-out: MIC
# [3] = system: Bacillus thuringiensis; format: cell-based; conditions: Bacillus thuringiensis Berliner ATCC: 10792; for MIC: Bacillus thuringiensis, read-out: MIC
# [4] = system: Burkholderia thailandensis Brett et al ATCC: 700388; experiment: microbe, parasite or virus in culture; format: cell-based
# [5] = system: Candida glabrata; experiment: Candida glabrata MIC / MFC; format: cell-based; conditions: Nakaseomyces glabratus, Candida glabrata #584 (Table 2); for MIC: read-out: MIC; for MFC: minimum fungicidal concentration, read-out: MFC
# [6] = system: Francisella tularensis subsp. Holarctica Strain LVSR NR-597; experiment: microbe, parasite or virus in culture; format: cell-based
# [7] = system: Francisella tularensis strains; experiment: microbe, parasite or virus in culture; format: cell-based
# [8] = Toxicity in mice, body weight over 7 days; format: in vivo, Balb/c mice; conditions: for Animal body weight (kg) Day 0 / Animal body weight (kg) Day 1 / Animal body weight (kg) Day 2 / Animal body weight (kg) Day 3 / Animal body weight (kg) Day 4 / Animal body weight (kg) Day 5 / Animal body weight (kg) Day 6 / Animal body weight (kg) Day 7: mice, IP; for Animal body weight (kg) Day 0: Day 0, individual animals; for Animal body weight (kg) Day 1: Day 1, individual animals; for Animal body weight (kg) Day 2: Day 2, individual animals; for Animal body weight (kg) Day 3: Day 3, individual animals; for Animal body weight (kg) Day 4: Day 4, individual animals; for Animal body weight (kg) Day 5: Day 5, individual animals; for Animal body weight (kg) Day 6: Day 6, individual animals; for Animal body weight (kg) Day 7: Day 7, individual animals
# Source text: The vehicle is 40% PEG300 solution in 0.9% NaCl. […] Thus, the compounds are useful for in vivo antimicrobial administration.
smiles,measurement,setting,value
"Brc1ccc(CSc2c[nH]c3ccc(Br)cc23)cc1 [Compound 174O, 5-bromo-3-((4-bromobenzyl)thio)-1H-indole]",MIC,[1],1.24 µg/mL
same,MBC,[2],> 50 µg/mL
same,MIC,[2],3.13 µg/mL
same,MBC,[3],3.13 µg/mL
same,MIC,[3],3.13 µg/mL
same,MIC,[4],> 50 µg/mL
same,MIC,[5],> 50 µg/mL
"Clc1cccc(Sc2c[nH]c3ccc(Br)cc23)c1Cl [Compound 174T, 5-bromo-3-((2,3-dichlorophenyl)thio)-1H-indole]",MIC,[1],1.16 µg/mL
same,MBC,[2],> 10 µg/mL
same,MIC,[2],1.25 µg/mL
same,MBC,[3],2.5 µg/mL
same,MIC,[3],1.25 µg/mL
same,MIC,[4],> 50 µg/mL
same,MFC,[5],25 µg/mL
same,MIC,[5],3.13 µg/mL
"Nc1ccc(Sc2c[nH]c3ccc(Br)cc23)cc1 [Compound 174Z, 4-((5-bromo-1H-indol-3-yl)thio)aniline]",MIC,[1],3.97 µg/mL
same,MBC,[2],> 10 µg/mL
same,MIC,[2],10 µg/mL
same,MBC,[3],> 10 µg/mL
same,MIC,[3],10 µg/mL
same,MIC,[4],> 50 µg/mL
same,MIC,[5],25 µg/mL
"COC(=O)c1ccc2[nH]cc(Sc3ccc(Br)cc3)c2c1 [Compound 172G, methyl 3-((4-bromophenyl)thio)-1H-indole-5-carboxylate]",MIC,[1],18.1 µg/mL
same,MBC,[2],45 µg/mL
same,MIC,[2],11.3 µg/mL
same,MBC,[3],> 45 µg/mL
same,MIC,[3],11.3 µg/mL
same,MIC,[5],> 50 µg/mL
"Brc1ccc2[nH]cc(Sc3ccc4ccccc4c3)c2c1 [Compound 174S, 5-bromo-3-(naphthalen-2-ylthio)-1H-indole]",MIC,[1],> 8.82 µg/mL
same,MIC,[2],> 50 µg/mL
same,MIC,[3],> 50 µg/mL
same,MIC,[4],> 50 µg/mL
same,MIC,[5],> 50 µg/mL
"Nc1cccc(Sc2c[nH]c3ccc(Br)cc23)c1 [Compound 174Y, 3-((5-bromo-1H-indol-3-yl)thio)aniline]",MIC,[1],3.97 µg/mL
same,MBC,[2],> 10 µg/mL
same,MIC,[2],10 µg/mL
same,MBC,[3],> 10 µg/mL
same,MIC,[3],10 µg/mL
same,MIC,[4],> 50 µg/mL
same,MIC,[5],25 µg/mL
"Brc1ccc2[nH]cc(SCc3ccccc3)c2c1 [Compound 174K, 3-(benzylthio)-5-bromo-1H-indole]",MIC,[1],1.98 µg/mL
same,MBC,[2],6.25 µg/mL
same,MIC,[2],3.13 µg/mL
same,MBC,[3],6.25 µg/mL
same,MIC,[3],3.13 µg/mL
same,MIC,[4],> 50 µg/mL
same,MFC,[5],12.5 µg/mL
same,MIC,[5],6.25 µg/mL
"Brc1ccc2[nH]cc(Sc3nc4ccccc4s3)c2c1 [Compound 174L, 2-((5-bromo-1H-indol-3-yl)thio)benzo[d]thiazole]",MIC,[1],> 18 µg/mL
same,MBC,[2],> 50 µg/mL
same,MIC,[2],1.56 µg/mL
same,MBC,[3],50 µg/mL
same,MIC,[3],1.56 µg/mL
same,MIC,[4],> 50 µg/mL
same,MIC,[5],> 50 µg/mL
"Clc1cc2[nH]cc(Sc3ccc(Br)cc3)c2cc1Br [Compound 174AF, 5-bromo-3-((4-bromophenyl)thio)-6-chloro-1H-indole]",MBC,[2],50 µg/mL
same,MIC,[2],4 µg/mL
same,MBC,[3],4 µg/mL
same,MIC,[3],2 µg/mL
same,MIC,[4],> 50 µg/mL
same,MIC,[5],> 50 µg/mL
same,MIC,[6],4 µg/mL
"Brc1ccc(Sc2c[nH]c3cc(Br)ccc23)cc1 [Compound 174A, 6-bromo-3-((4-bromophenyl)thio)-1H-indole]",MBC,[2],6.25 µg/mL
same,MIC,[2],3.13 µg/mL
same,MBC,[3],3.13 µg/mL
same,MIC,[3],3.13 µg/mL
same,MIC,[4],> 50 µg/mL
same,MIC,[5],12.5 µg/mL
same,MIC,[6],1.56 µg/mL
"Brc1ccc2[nH]cc(Sc3ccccc3)c2c1 [Compound 174AA, 5-bromo-3-(phenylthio)-1H-indole]",MBC,[2],16 µg/mL
same,MIC,[2],4 µg/mL
same,MBC,[3],16 µg/mL
same,MIC,[3],8 µg/mL
same,MIC,[4],> 50 µg/mL
same,MFC,[5],6.25 µg/mL
same,MIC,[5],3.13 µg/mL
same,MIC,[6],4 µg/mL
"Fc1ccccc1Sc1c[nH]c2ccc(Br)cc12 [Compound 174AU, 5-bromo-3-((2-fluorophenyl)thio)-1H-indole]",MBC,[2],2 µg/mL
same,MIC,[2],1 µg/mL
same,MBC,[3],2 µg/mL
same,MIC,[3],1 µg/mL
same,MFC,[5],50 µg/mL
same,MIC,[5],3.13 µg/mL
same,MIC,[6],0.25 µg/mL
same,MIC50,[7],2 µg/mL
same,MIC,"[7]; read-out: F. tularensis BSL-3 MIC, Strain 100",8 µg/mL
same,MIC,"[7]; read-out: F. tularensis BSL-3 MIC, strain HN-63",2 µg/mL
same,MIC,"[7]; read-out: F. tularensis BSL-3 MIC, strain LVS",2 µg/mL
same,MIC,"[7]; read-out: F. tularensis BSL-3 MIC, strain MA00-2987",2 µg/mL
same,MIC,"[7]; read-out: F. tularensis BSL-3 MIC, strain MO #1",1.83 µg/mL
same,MIC,"[7]; read-out: F. tularensis BSL-3 MIC, strain MO #2",1.67 µg/mL
same,MIC,"[7]; read-out: F. tularensis BSL-3 MIC, strain MO #3",2 µg/mL
same,MIC,"[7]; read-out: F. tularensis BSL-3 MIC, strain OR-96",4 µg/mL
same,MIC,"[7]; read-out: F. tularensis BSL-3 MIC, strain SCHU S4",4 µg/mL
same,MIC,"[7]; read-out: F. tularensis BSL-3 MIC, strain WY-96",1.5 µg/mL
same,MIC,"[7]; read-out: MAX, highest MIC over the Francisella tularensis strains",8 µg/mL
same,MIC,"[7]; read-out: MIN, lowest MIC over the Francisella tularensis strains",1.5 µg/mL
same,toxicity in mice by body weight,"[8]; 6-week-old Balb/c mice, body weight over 7 days, vehicle 40% PEG300 in 0.9% NaCl",did not have significant toxicity
same,Animal body weight (kg) Day 0,"[8]; 0.1 mg/kg, 0.1 mg/kg",0.026 kg and 0.023 kg and 0.024 kg
same,Animal body weight (kg) Day 1,"[8]; 0.1 mg/kg, 0.1 mg/kg",0.024 kg and 0.022 kg and 0.023 kg
same,Animal body weight (kg) Day 2,"[8]; 0.1 mg/kg, 0.1 mg/kg",0.025 kg and 0.022 kg and 0.023 kg
same,Animal body weight (kg) Day 3,"[8]; 0.1 mg/kg, 0.1 mg/kg",0.025 kg and 0.022 kg and 0.023 kg
same,Animal body weight (kg) Day 4,"[8]; 0.1 mg/kg, 0.1 mg/kg",0.025 kg and 0.022 kg and 0.023 kg
same,Animal body weight (kg) Day 5,"[8]; 0.1 mg/kg, 0.1 mg/kg",0.025 kg and 0.023 kg and 0.024 kg
same,Animal body weight (kg) Day 6,"[8]; 0.1 mg/kg, 0.1 mg/kg",0.025 kg and 0.022 kg and 0.023 kg
same,Animal body weight (kg) Day 7,"[8]; 0.1 mg/kg, 0.1 mg/kg",0.024 kg and 0.022 kg and 0.023 kg
same,Animal body weight (kg) Day 0,"[8]; 1 mg/kg, 1 mg/kg",0.026 kg and 0.022 kg and 0.025 kg
same,Animal body weight (kg) Day 1,"[8]; 1 mg/kg, 1 mg/kg",0.025 kg (2×) and 0.022 kg
same,Animal body weight (kg) Day 2,"[8]; 1 mg/kg, 1 mg/kg",0.026 kg and 0.022 kg and 0.025 kg
same,Animal body weight (kg) Day 3,"[8]; 1 mg/kg, 1 mg/kg",0.026 kg and 0.022 kg and 0.025 kg
same,Animal body weight (kg) Day 4,"[8]; 1 mg/kg, 1 mg/kg",0.026 kg and 0.023 kg and 0.025 kg
same,Animal body weight (kg) Day 5,"[8]; 1 mg/kg, 1 mg/kg",0.026 kg and 0.023 kg and 0.025 kg
same,Animal body weight (kg) Day 6,"[8]; 1 mg/kg, 1 mg/kg",0.025 kg (2×) and 0.023 kg
same,Animal body weight (kg) Day 7,"[8]; 1 mg/kg, 1 mg/kg",0.026 kg and 0.024 kg and 0.025 kg
same,Animal body weight (kg) Day 0,"[8]; 10 mg/kg, 10 mg/kg",0.024 kg (2×) and 0.025 kg
same,Animal body weight (kg) Day 1,"[8]; 10 mg/kg, 10 mg/kg",0.023 kg (2×) and 0.024 kg
same,Animal body weight (kg) Day 2,"[8]; 10 mg/kg, 10 mg/kg",0.023 kg (2×) and 0.025 kg
same,Animal body weight (kg) Day 3,"[8]; 10 mg/kg, 10 mg/kg",0.024 kg and 0.023 kg and 0.025 kg
same,Animal body weight (kg) Day 4,"[8]; 10 mg/kg, 10 mg/kg",0.023 kg (2×) and 0.025 kg
same,Animal body weight (kg) Day 5,"[8]; 10 mg/kg, 10 mg/kg",0.023 kg (2×) and 0.026 kg
same,Animal body weight (kg) Day 6,"[8]; 10 mg/kg, 10 mg/kg",0.022 kg and 0.023 kg and 0.026 kg
same,Animal body weight (kg) Day 7,"[8]; 10 mg/kg, 10 mg/kg",0.022 kg and 0.023 kg and 0.026 kg
